Reference: patent US7524975B2, “Peroxisome proliferator activated receptor ligand and process for producing the same” (Kaneka Corporation, priority 2001, dated 2009)

Target: T1, mouse PPARγ ligand-binding site (Mus musculus, UniProt P37238)
T1 construct: expressed in transfected cells; host or cells: CV-1 cells (African green monkey kidney)
T1 sequence (P37238 174-475 isoform P37238-2): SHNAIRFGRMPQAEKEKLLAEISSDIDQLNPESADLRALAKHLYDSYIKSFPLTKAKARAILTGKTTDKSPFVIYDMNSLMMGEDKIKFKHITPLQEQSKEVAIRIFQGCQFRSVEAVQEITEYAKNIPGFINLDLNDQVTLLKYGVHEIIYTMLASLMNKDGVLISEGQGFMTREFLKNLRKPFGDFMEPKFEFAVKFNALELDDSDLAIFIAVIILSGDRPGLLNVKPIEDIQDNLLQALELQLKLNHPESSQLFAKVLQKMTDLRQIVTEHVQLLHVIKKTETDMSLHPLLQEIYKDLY
Experiment: Measurement of PPARγ ligand activity (GAL4 chimera luciferase reporter in CV-1 cells)
Assay type: cell-based
Conditions: for PPARγ ligand activity: CV-1 cells, 24 hours, specific activity relative to untreated control (DMSO) = 1.00; for PPARγ ligand activity compared with positive control troglitazone (in words): compared with 0.5 μM troglitazone
Procedure: CV-1 cells (cultured cells derived from the kidney of a male African green monkey) were inoculated on a 96-well culture plate in a concentration of 6×10^3 cells/well and incubated at 37° C. in 5% CO2 for 24 hours. The medium used was DMEM (Dulbecco's Modified Eagle Medium: GIBCO) containing 10% FBS (fetal bovine serum), 10 ml/L penicillin and streptomycin solution (containing 5000 IU/ml and 5,000 μg/ml, respectively: GIBCO) and 37 mg/L ascorbic acid (Wako Pure Chemical Industries, Ltd.). […] 4xUASg-luc is a reporter plasmid comprising four GAL4 response sequences (UASg) integrated into a region upstream of a luciferase gene. At about 24 hours after transfection, the medium was exchanged with a sample-containing medium, and the cells were cultured for 24 hours (n=4). The sample-containing medium was prepared by dissolving a sample in dimethyl sulfoxide (DMSO) in an amount of 1/1000 based on the medium, while for the untreated control, DMSO in an amount of 1/1000 based on the medium was used in place of the sample. After the cells were washed with a Ca- and Mg-containing phosphate buffered physiological saline (PBS+), LucLite (Packard) was added thereto, and the intensity of luciferase luminescence was measured with a TopCount microplate scintillation/luminescence counter (Packard).
As the control group, pM (plasmid from which the PPARγ ligand-binding site gene was removed) was measured in place of pM-mPPARγ in the same manner as for the measurement group. For each sample, the ratio (measurement group/control group) of the average luminescence intensity of the measurement group (n=4) to that of the control group was calculated, and the specific activity relative to the activity of the untreated control was regarded as the PPARγ ligand activity of the sample.

| PPARγ ligand activity (added concentration 2 μg/ml) | PPARγ ligand activity (added concentration 5 μg/ml) | PPARγ ligand activity (added concentration 10 μg/ml) | Structure (SMILES) | PPARγ ligand activity compared with positive control troglitazone (in words) |
| --- | --- | --- | --- | --- |
| 1.84 | 2.20 | 3.71 | COc1c(/C=C/C(=O)c2ccc(O)cc2)ccc(O)c1CC=C(C)C [Compound 26, Licochalcone C] | – |
| 2.03 | 2.79 | 3.82 | COc1c(CC=C(C)C)c(O)cc2oc(=O)c(-c3ccc(O)cc3O)cc12 [Compound 1, Glycycoumarin] | – |
| 4.02 | 4.14 | 4.16 | C=CC(C)(C)c1cc(/C=C/C(=O)c2ccc(O)cc2)c(OC)cc1O [Compound 24, Licochalcone A] | – |
| 2.56 | 3.64 | 5.84 | COc1c(-c2ccc(O)cc2)oc2cc(O)c(CC=C(C)C)c(O)c2c1=O [Compound 16, Topazolin] | – |
| 1.27 | 1.93 | 1.61 | COc1c(/C=C/C(=O)c2ccc(O)cc2)ccc(O)c1O [Compound 25, Licochalcone B] | slightly weaker than that of a positive control containing 0.5 μM troglitazone |

More lines, now with the values behind:

| Structure (SMILES) | PPARγ ligand activity (added concentration 2 μg/ml) | PPARγ ligand activity (added concentration 5 μg/ml) | PPARγ ligand activity (added concentration 10 μg/ml) | PPARγ ligand activity compared with positive control troglitazone (in words) |
| --- | --- | --- | --- | --- |
| O=C(/C=C/c1ccc(O)cc1)c1ccc(O)cc1O [Compound 13, Isoliquiritigenin] | 1.47 | 2.71 | 3.39 | – |
| CC(C)=CCc1cc([C@@H]2CC(=O)c3ccc(O)c(CC=C(C)C)c3O2)ccc1O [Compound 23, Glabrol] | 1.85 | 3.48 | 3.74 | – |
| COc1ccc(C2COc3c(ccc4c3C=CC(C)(C)O4)C2)c(O)c1 (stereo not drawn) [Compound 21, 4′-O-Methylglabridin] | 1.25 | 1.55 | 2.13 | – |
| CC1(C)C=Cc2c(O)ccc(C3=Cc4ccc(O)cc4OC3)c2O1 [Compound 19, Glabrene] | 1.78 | 3.44 | 2.89 | – |
| CC1(C)C=Cc2c(ccc(C3COc4c(ccc5c4C=CC(C)(C)O5)C3)c2O)O1 (stereo not drawn) [Compound 20, Hispaglabridin B] | 1.04 | 1.45 | 1.94 | slightly weaker than that of a positive control containing 0.5 μM troglitazone |
| CC(C)=CCc1cc(-c2coc3cc(O)cc(O)c3c2=O)cc(O)c1O [Compound 17, Glycyrrhisoflavone] | 1.78 | 3.05 | 3.20 | – |
| CC1(C)[C@@H](O)CC[C@]2(C)[C@H]3C(=O)C=C4[C@@H]5C[C@@](C)(C(=O)O)CC[C@]5(C)CC[C@@]4(C)[C@]3(C)CC[C@@H]12 [Glycyrrhetinic acid, glycyrrhetinic acid, reference compound] | 0.97 | 0.95 | 0.97 | not recognized to have a PPARγ ligand activity |
| COc1cc2c(c(OC)c1CC=C(C)C)C=C(c1ccc(O)cc1O)CO2 [Compound 4, 3-(2′,4′-dihydroxyphenyl)-6-(3″,3″-dimethylallyl)-5,7-dimethoxy-2H-chromene] | 2.95 | 3.72 | 4.00 | – |
| COc1cc(O)cc2c1C(=O)C(c1cc(O)c3c(c1)C=CC(C)(C)O3)CO2 (stereo not drawn) [Compound 9, Glycyrrhisoflavanone] | 2.01 | 3.45 | 4.68 | – |
| CC(C)=CCc1c(O)cc(O)c2c(=O)c(-c3ccc(O)cc3)coc12 [Compound 10, Lupiwighteone] | 1.67 | 2.53 | 3.75 | – |
| CC(C)=CCc1cc(-c2coc3c(CC=C(C)C)c(O)cc(O)c3c2=O)cc(O)c1O [Compound 3, Glyurallin B] | 1.28 | 1.96 | 2.73 | – |
